According to US10730875B2, “Substituted imidazo[1,2-A]pyridin-2-ylamine compounds, and pharmaceutical compositions and methods of use thereof” (JN Therapeutics, priority 2015, dated 2020):

What was measured:
Type in all cases: biochemical
[1] = molecular target: human tyrosine kinase 2 (TYK2), recombinant catalytic domain (Homo sapiens (Human), UniProt P29597); assay: LanthaScreen TR-FRET enzymatic assay, TYK2; details: TR-FRET, 1 mM ATP, GFP-STAT1 substrate; read-out: Inhibitory Activity IC50 TYK2
human tyrosine kinase 2 (TYK2), recombinant catalytic domain (Homo sapiens (Human), UniProt P29597), sequence (P29597 833-1187): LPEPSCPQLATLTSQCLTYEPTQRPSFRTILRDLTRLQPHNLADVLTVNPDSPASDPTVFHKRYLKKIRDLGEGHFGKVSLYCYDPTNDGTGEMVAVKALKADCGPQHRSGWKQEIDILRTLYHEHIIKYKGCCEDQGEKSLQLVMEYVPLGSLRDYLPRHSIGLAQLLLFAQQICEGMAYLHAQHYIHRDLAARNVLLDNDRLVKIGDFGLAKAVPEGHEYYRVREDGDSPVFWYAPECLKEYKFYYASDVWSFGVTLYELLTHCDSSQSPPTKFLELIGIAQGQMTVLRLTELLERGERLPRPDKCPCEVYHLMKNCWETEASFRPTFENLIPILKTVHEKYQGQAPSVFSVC
Protocol: (§1) The in vitro inhibition of recombinant human JAKs was determined as follow.
(§2) Compounds were tested in LANTHASCREEN™ time-resolved fluorescence energy transfer (TR-FRET) enzymatic assays from Invitrogen. The human Janus kinase 1 (JAK1) used in the assay is the recombinant JAK1 catalytic domain (amino acids 866-1154) expressed and purified from insect cells (Invitrogen, Cat. No. PV4774). The human Janus kinase 2 (JAK2) used in the assay is the recombinant JAK2 catalytic domain (amino acids 808-1132) expressed and purified from insect cells (Invitrogen, Cat. No. PV4210). The human Janus kinase 3 (JAK3) used in the assay is the recombinant JAK3 catalytic domain (amino acids 781-1124) expressed and purified from insect cells (Invitrogen, Cat. No. PV3855). The human tyrosine kinase 2 (TYK2) used in the assay is the recombinant TYK2 catalytic domain (amino acids 833-1187) expressed and purified from insect cells (Invitrogen, Cat. No. PV4790). The substrate is a recombinant STAT1 expressed as a fusion with GFP (Green Fluorescent Protein) to act as a physiological substrate (Invitrogen, Cat. No. PV5211).
(§3) Test compounds were prepared and diluted in DMSO in 3-fold serial dilutions for 10 doses to 100× of the final testing concentrations. The compounds were then further diluted to 4× by the kinase reaction buffer (Invitrogen, Cat. No. PV3189). The enzymatic reaction for compound testing was performed in a white 384-well polypropylene plate (Packard, Cat. No. 6005214) with a total reaction volume of 10 μL containing 440 ng/mL JAK1, 11 ng/mL JAK2, 400 ng/mL JAK3, or 200 ng/mL TYK2, 100 nM substrate, and 1 mM ATP. The assay started with loading 2.5 μL of JAK1, JAK2, JAK3, or TYK2 diluted in the kinase reaction buffer to wells, followed by addition of an equal volume of 4× compounds for 15-min incubation at room temperature for pre-treatment. The enzymatic reaction was initiated by addition of 5 μL of a mixture of the substrate and ATP prepared in the kinase reaction buffer. After one hour reaction, 10 μL mixture of EDTA (final 10 mM) and terbium-labeled anti-pSTAT1 (pTyr701) antibody (final 2 nM) (Invitrogen, Cat. No. PV4844) prepared in TR-FRET antibody dilution buffer (Invitrogen, Cat. No. PV3574) was added to stop the enzymatic reaction and produce TR-FRET signals. After 30 minutes of incubation at room temperature, the plate was read in Tecan Infinite F200 Pro with the following settings: Excitation 340 nm (30)/Emission1 495 nm (10)/Emission2 520 nm (25). The TR-FRET values were dimensionless numbers that were calculated as the ratio of the acceptor ([…]) signal to the donor (Terbium) signal. Percent of inhibition was calculated as (100%−percentage of compound-treated/DMSO vehicle-treated). The dose-response curves were generated and the IC50s were calculated by nonlinear sigmoid curve fitting using GraphPad Prism.
(§4) In Table 1, A represents a value no greater than 500 nM, B represents a value greater than 500 nM but no greater than 1 μM, C represents a value greater than 1 μM but no greater than 5 μM, and D represents a value greater than 5 μM. In Table 2, A′ represents a ratio of greater than 8, B′ represents a ratio of no greater than 8 but no less than 4, C′ represents a ratio of no greater than 4 but no less than 2, and D′ represents a ratio of no greater than 2. The selectivity is expressed as a ratio of the IC50 values of a compound against two kinases to be compared.

[2] = system: human tyrosine kinase 2 (TYK2), recombinant catalytic domain; assay: LanthaScreen TR-FRET enzymatic assay, TYK2; details: ratio of IC50 against TYK2 over IC50 against JAK1
Protocol: as §1, §2, §3, §4

[3] = molecular target: human Janus kinase 1 (JAK1), recombinant catalytic domain (Homo sapiens (Human), UniProt P23458); assay: LanthaScreen TR-FRET enzymatic assay, JAK1; details: 1 mM ATP, GFP-STAT1 substrate, read-out: Inhibitory Activity IC50 JAK1
human Janus kinase 1 (JAK1), recombinant catalytic domain, sequence (P23458 866-1154): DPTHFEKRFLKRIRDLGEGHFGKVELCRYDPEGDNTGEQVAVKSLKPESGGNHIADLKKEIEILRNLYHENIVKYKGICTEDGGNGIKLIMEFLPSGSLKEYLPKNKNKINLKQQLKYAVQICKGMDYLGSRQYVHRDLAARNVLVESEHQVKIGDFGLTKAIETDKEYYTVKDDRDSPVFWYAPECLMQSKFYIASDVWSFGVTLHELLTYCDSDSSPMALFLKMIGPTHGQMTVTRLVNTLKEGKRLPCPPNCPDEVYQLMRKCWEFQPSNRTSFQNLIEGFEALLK
Protocol: as §1, §2, §3, §4

[4] = molecular target: human Janus kinase 2 (JAK2), recombinant catalytic domain (Homo sapiens (Human), UniProt O60674); assay: LanthaScreen TR-FRET enzymatic assay, JAK2; details: for IC50: TR-FRET, 1 mM ATP, GFP-STAT1 substrate, read-out: Inhibitory Activity IC50 JAK2; for Selectivity JAK2/JAK1: ratio of IC50 against JAK2 over IC50 against JAK1
human Janus kinase 2 (JAK2), recombinant catalytic domain, sequence (O60674 808-1132): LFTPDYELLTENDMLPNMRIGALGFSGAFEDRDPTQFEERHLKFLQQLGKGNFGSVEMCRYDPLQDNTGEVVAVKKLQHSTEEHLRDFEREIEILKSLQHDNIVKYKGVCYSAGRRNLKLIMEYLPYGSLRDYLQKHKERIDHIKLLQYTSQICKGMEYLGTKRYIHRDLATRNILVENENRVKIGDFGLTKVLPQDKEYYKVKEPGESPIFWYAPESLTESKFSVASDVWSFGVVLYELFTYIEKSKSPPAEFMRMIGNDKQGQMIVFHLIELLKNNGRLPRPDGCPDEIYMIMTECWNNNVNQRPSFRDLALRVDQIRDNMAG
Protocol: as §1, §2, §3, §4

[5] = system: human Janus kinase 3 (JAK3), recombinant catalytic domain; assay: LanthaScreen TR-FRET enzymatic assay, JAK3; details: ratio of IC50 against JAK3 over IC50 against JAK1
Protocol: as §1, §2, §3, §4

[6] = molecular target: human Janus kinase 3 (JAK3), recombinant catalytic domain (Homo sapiens (Human), UniProt P52333); assay: LanthaScreen TR-FRET enzymatic assay, JAK3; details: TR-FRET, 1 mM ATP, GFP-STAT1 substrate; read-out: Inhibitory Activity IC50 JAK3
human Janus kinase 3 (JAK3), recombinant catalytic domain (Homo sapiens (Human), UniProt P52333), sequence (P52333 781-1124): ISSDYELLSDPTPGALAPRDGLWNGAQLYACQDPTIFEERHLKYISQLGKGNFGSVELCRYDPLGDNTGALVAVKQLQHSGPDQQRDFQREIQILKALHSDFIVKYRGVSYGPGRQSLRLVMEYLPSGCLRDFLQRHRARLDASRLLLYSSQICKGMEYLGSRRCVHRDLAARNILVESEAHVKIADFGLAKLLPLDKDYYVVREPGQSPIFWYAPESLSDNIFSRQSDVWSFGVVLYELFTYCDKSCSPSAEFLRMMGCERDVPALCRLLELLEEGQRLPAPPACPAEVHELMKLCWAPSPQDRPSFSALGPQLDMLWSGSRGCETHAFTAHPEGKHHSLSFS
Protocol: as §1, §2, §3, §4

| IC50 [1] | IC50 [3] | IC50 [4] | IC50 [6] | Structure (SMILES) | Selectivity TYK2/JAK1 [2] | Selectivity JAK2/JAK1 [4] | Selectivity JAK3/JAK1 [5] |
| --- | --- | --- | --- | --- | --- | --- | --- |
| > 5 µM | 1 to 5 µM | > 5 µM | > 5 µM | O=C(Nc1cn2c(-c3ccc(CN4CCS(=O)(=O)CC4)cc3)cccc2n1)C1CCC1 [Compound 3] | A′ (A′ represents a ratio of greater than 8) | A′ (A′ represents a ratio of greater than 8) | A′ (A′ represents a ratio of greater than 8) |
| > 5 µM | 0.5 to 1 µM | > 5 µM | > 5 µM | O=C(Nc1cn2c(-c3ccc(CN4CCOCC4)cc3)cccc2n1)C1CC1 [Compound 4] | A′ (A′ represents a ratio of greater than 8) | A′ (A′ represents a ratio of greater than 8) | A′ (A′ represents a ratio of greater than 8) |
| > 5 µM | > 5 µM | > 5 µM | > 5 µM | CN1CCN(Cc2ccc(-c3cccc4nc(NC(=O)C5CC5)cn34)cc2)CC1 [Compound 5] | A′ (A′ represents a ratio of greater than 8) | A′ (A′ represents a ratio of greater than 8) | A′ (A′ represents a ratio of greater than 8) |
| > 5 µM | 1 to 5 µM | > 5 µM | > 5 µM | O=C(Nc1cn2c(-c3ccc(CN4CCCCC4)cc3)cccc2n1)C1CC1 [Compound 6] | A′ (A′ represents a ratio of greater than 8) | A′ (A′ represents a ratio of greater than 8) | A′ (A′ represents a ratio of greater than 8) |
| > 5 µM | 0.5 to 1 µM | > 5 µM | > 5 µM | N#CC1CCN(Cc2ccc(-c3cccc4nc(NC(=O)C5CC5)cn34)cc2)CC1 [Compound 7] | A′ (A′ represents a ratio of greater than 8) | A′ (A′ represents a ratio of greater than 8) | A′ (A′ represents a ratio of greater than 8) |
| > 5 µM | 0.5 to 1 µM | > 5 µM | > 5 µM | O=C(Nc1cn2c(-c3ccc(CN4CC[C@H](O)C4)cc3)cccc2n1)C1CC1 [Compound 8] | A′ (A′ represents a ratio of greater than 8) | A′ (A′ represents a ratio of greater than 8) | A′ (A′ represents a ratio of greater than 8) |
| > 5 µM | 1 to 5 µM | > 5 µM | > 5 µM | O=C(Nc1cn2c(-c3ccc(CN4CC[C@@H](O)C4)cc3)cccc2n1)C1CC1 [Compound 9] | A′ (A′ represents a ratio of greater than 8) | A′ (A′ represents a ratio of greater than 8) | A′ (A′ represents a ratio of greater than 8) |
| > 5 µM | 1 to 5 µM | > 5 µM | > 5 µM | COc1ccc(-c2cccc3nc(NC(=O)C4CC4)cn23)cc1 [Compound 10] | A′ (A′ represents a ratio of greater than 8) | A′ (A′ represents a ratio of greater than 8) | A′ (A′ represents a ratio of greater than 8) |
| > 5 µM | ≤ 0.5 µM | > 5 µM | > 5 µM | N#CCc1ccc(-c2cccc3nc(NC(=O)C4CC4)cn23)cc1 [Compound 11] | A′ (A′ represents a ratio of greater than 8) | A′ (A′ represents a ratio of greater than 8) | A′ (A′ represents a ratio of greater than 8) |
| > 5 µM | 1 to 5 µM | > 5 µM | > 5 µM | Cc1cc(CN2CCS(=O)(=O)CC2)ccc1-c1cccc2nc(NC(=O)C3CC3)cn12 [Compound 12] | A′ (A′ represents a ratio of greater than 8) | A′ (A′ represents a ratio of greater than 8) | A′ (A′ represents a ratio of greater than 8) |
| > 5 µM | 0.5 to 1 µM | > 5 µM | > 5 µM | O=C(Nc1cn2c(-c3ccc(C(=O)N4CCS(=O)(=O)CC4)cc3)cccc2n1)C1CC1 [Compound 13, N-(5-(4-(1,1-Dioxo-1-thiomorpholine-4-carbonyl)phenyl)imidazo[1,2-a]pyridin-2-yl)cyclopropane Carboxamide] | A′ (A′ represents a ratio of greater than 8) | A′ (A′ represents a ratio of greater than 8) | A′ (A′ represents a ratio of greater than 8) |
| > 5 µM | ≤ 0.5 µM | > 5 µM | > 5 µM | N#CCc1ccc(-c2cccc3nc(NC(=O)C4CC4)cn23)c(F)c1 [Compound 16] | A′ (A′ represents a ratio of greater than 8) | A′ (A′ represents a ratio of greater than 8) | A′ (A′ represents a ratio of greater than 8) |
| > 5 µM | > 5 µM | > 5 µM | > 5 µM | Nc1cn2c(-c3ccc(CN4CCS(=O)(=O)CC4)cc3)cccc2n1 [Compound 19] | C′ (C′ represents a ratio of no greater than 4 but no less than 2) | A′ (A′ represents a ratio of greater than 8) | D′ (D′ represents a ratio of no greater than 2) |
| > 5 µM | > 5 µM | > 5 µM | > 5 µM | N#CCc1ccc(-c2cccc3nc(N)cn23)c(F)c1 [Compound 21] | C′ (C′ represents a ratio of no greater than 4 but no less than 2) | A′ (A′ represents a ratio of greater than 8) | A′ (A′ represents a ratio of greater than 8) |
|  |  |  | > 5 µM | N#CC1(c2ccc(-c3cccc4nc(NC(=O)C5CC5)cn34)cc2)CC1 [Compound 22] |  | A′ (A′ represents a ratio of greater than 8) |  |
| > 5 µM | 0.5 to 1 µM | > 5 µM | > 5 µM | CC1(C)CN(C(=O)c2ccc(-c3cccc4nc(NC(=O)C5CC5)cn34)c(F)c2)C1 [Compound 23] | A′ (A′ represents a ratio of greater than 8) | A′ (A′ represents a ratio of greater than 8) | A′ (A′ represents a ratio of greater than 8) |
| > 5 µM | > 5 µM | > 5 µM | > 5 µM | O=C(Nc1cn2c(-c3ccc(CN4CCS(=O)(=O)CC4)cc3)c(Cl)ccc2n1)C1CC1 [Compound 34] |  |  |  |
| > 5 µM | > 5 µM | > 5 µM | > 5 µM | Cc1ccc(-c2ccc(CN3CCS(=O)(=O)CC3)cc2)n2cc(NC(=O)C3CC3)nc12 [Compound 35] |  |  |  |
